# According to US20070243217A1, “Film-Shaped Medicament for Oral Administration Containing Estriol” (HF Arzneimittelforschung GmbH, priority 2004, published 2007):
# Tests used:
# [1] = Changes of the oral mucosa on buccal or sublingual administration of estriol; format: in vivo
# [2] = Estriol levels in the blood over time with the same treatment and dose; format: in vivo; conditions: vaginal application
# Method: Thus, even in the case of long-term use, there should be no unwanted absorption conditions at the oral mucosa as the application site that show a change for the worse, provided that the treatment of the climacteric complaints is carried out using a film-shaped medicament according to the invention.
structure (smiles),measurement,setting,value
"C[C@]12CC[C@@H]3c4ccc(O)cc4CC[C@H]3[C@@H]1C[C@@H](O)[C@@H]2O [estriol, (16α, 17β)-estra-1,3,5(10)-triene-3,16,17-triol]",changes of the oral mucosa analogous to proliferation and hornification of the upper cell layers in the vagina,[1],no changes of the oral mucosa
same,estriol levels in the blood after some time,[2],drop measurably after some time
